Reference: patent publication US11767341B2, “Lincosamide antibiotics and uses thereof” (President and Fellows of Harvard College, priority 2017, dated 2023)
Values after ≈ are worked out from the molar mass of the structure shown. Read-outs that look alike come from different tables or passages of the source.

Experiments:
Experiment in all cases: MIC determination
Format in all cases: cell-based
[1] = test system: S. aureus MMX 3035 cErmA; settings: Staphylococcus aureus, MMX3035CERMA
[2] = test system: P. aeruginosa MMX 3476 Δmex; settings: Pseudomonas aeruginosa
[3] = test system: S. pyogenes MMX 946 Macrolide-Resistant; settings: Streptococcus pyogenes
[4] = test system: E. faecalis MMX 847 Macrolide-Resistant; settings: Enterococcus faecalis
[5] = test system: C. difficile BAA 1805; settings: Clostridioides difficile, BAA1805; C. difficile BAA 1805; read-out: MIC
[6] = test system: S. aureus ATCC 29213; settings: Staphylococcus aureus, ATCC29213, S. aureus ATCC 29213; read-out: MIC
[7] = test system: S. aureus BAA 977 iErmA; settings: Staphylococcus aureus, BAA977
[8] = test system: S. pneumoniae ATCC 49619; settings: Streptococcus pneumoniae, ATCC49619; S. pneumoniae ATCC 49619; read-out: MIC
[9] = test system: S. aureus Micromyx USA 300; settings: Staphylococcus aureus, USA300; S. aureus Micromyx USA 300; read-out: MIC
[10] = test system: H. influenzae ATCC 49247; settings: Haemophilus influenzae, ATCC49247
[11] = test system: S. pneumoniae MMX 3028 cErmB; settings: Streptococcus pneumoniae, MMX3028CERMB
[12] = test system: S. pyogenes ATCC 19615; settings: Streptococcus pyogenes, ATCC19615; S. pyogenes ATCC 19615; read-out: MIC
[13] = test system: E. coli ATCC 25922; settings: Escherichia coli
[14] = test system: B. fragilis ATCC 25285; settings: Bacteroides fragilis, ATCC25285
[15] = test system: E. coli MMX TolC parent strain; settings: Escherichia coli
[16] = test system: S. pneumoniae MMX 3031 cMefA; settings: Streptococcus pneumoniae, MMX3031CMEFA
[17] = test system: E. coli MMX 0121 ΔTolC; settings: Escherichia coli
[18] = test system: E. faecalis ATCC 29212; settings: Enterococcus faecalis, ATCC29212, read-out: MIC
[19] = test system: P. aeruginosa ATCC 27853; settings: Pseudomonas aeruginosa, ATCC27853
[20] = test system: P. aeruginosa MMX Mex parent strain; settings: Pseudomonas aeruginosa
[21] = test system: S. aureus MP-549 msr(a) USA 300; settings: Staphylococcus aureus, USA300, S. aureus MP-549 msr(a) USA 300
[22] = test system: E. coli MP-9 ΔTolC; settings: Escherichia coli
[23] = test system: E. coli MP-74 LptD mutant; settings: Escherichia coli
[24] = test system: K. pneumoniae ATCC 10031; settings: Klebsiella pneumoniae, ATCC10031; K. pneumoniae ATCC 10031; read-out: MIC
[25] = S. pyogenes MMX 946 Macrolide-Resistant (MacRes), read-out: MIC
[26] = S. pneumoniae MMX 3028 cErmB, read-out: MIC
[27] = S. aureus MMX 3035 cErmA, read-out: MIC
[28] = E. faecalis MMX 847 Macrolide-Resistant (MacRes), read-out: MIC
[29] = H. influenzae ATCC 49247, read-out: MIC
[30] = ATCC25922, E. coli ATCC 25922, read-out: MIC
[31] = B. fragilis ATCC 25285, read-out: MIC
[32] = E. coli MMX TolC parent strain, read-out: MIC

Structure (SMILES)	MIC [1]	MIC [2]	MIC [3]	MIC [4]	MIC [5]	MIC [6]	MIC [7]	MIC [8]	MIC [9]	MIC [10]	MIC [11]	MIC [12]	MIC ([13]; ATCC25922)	MIC [14]	MIC [15]	MIC [16]	MIC [17]	MIC [18]	MIC [19]	MIC [20]	other results
CSC1O[C@H]([C@H](NC(=O)[C@H]2NC[C@@H]3C=C(c4ccc(F)cc4)CCO[C@@H]23)[C@H](C)Cl)C(O)[C@@H](O)[C@H]1O (stereo partly shown) [FSA-507052]	> 32 µg/mL	> 32 µg/mL	> 32 µg/mL	> 32 µg/mL	16 µg/mL (≈ 30.1 µM)	2 µg/mL (≈ 3.77 µM)	2 µg/mL (≈ 3.77 µM)	0.25 µg/mL (≈ 0.471 µM)	0.5 µg/mL (≈ 0.942 µM)	> 32 µg/mL	> 32 µg/mL	0.25 µg/mL (≈ 0.471 µM)	> 32 µg/mL	> 32 µg/mL	> 32 µg/mL	0.12 µg/mL (≈ 0.226 µM)	> 32 µg/mL	1 µg/mL (≈ 1.88 µM)	> 32 µg/mL	> 32 µg/mL	
CSC1O[C@H]([C@H](NC(=O)[C@H]2NC[C@@H]3C=C(c4ccc(C(F)(F)F)cc4)CCO[C@@H]23)[C@H](C)Cl)C(O)[C@@H](O)[C@H]1O (stereo partly shown) [FSA-507053]	> 64 µg/mL	> 64 µg/mL		> 64 µg/mL	8 µg/mL (≈ 13.8 µM)	0.25 µg/mL (≈ 0.43 µM)	0.25 µg/mL (≈ 0.43 µM)	0.25 µg/mL (≈ 0.43 µM)	0.12 µg/mL (≈ 0.207 µM)	16 µg/mL (≈ 27.5 µM)		≤ 0.06 µg/mL	> 64 µg/mL	16 µg/mL (≈ 27.5 µM)	> 64 µg/mL	0.12 µg/mL (≈ 0.207 µM)	16 µg/mL (≈ 27.5 µM)	2 µg/mL (≈ 3.44 µM)	> 64 µg/mL	> 64 µg/mL	MIC [3, 25]: 32 µg/mL (≈ 55.1 µM); MIC [11, 26]: 32 µg/mL (≈ 55.1 µM)
CSC1O[C@H]([C@H](NC(=O)[C@H]2NC[C@@H]3CC(c4ccccc4)=CCO[C@H]32)[C@H](C)Cl)C(O)[C@@H](O)[C@H]1O (stereo partly shown) [FSA-507056]	> 32 µg/mL	> 32 µg/mL	> 32 µg/mL	> 32 µg/mL	16 µg/mL (≈ 31.2 µM)	1 µg/mL (≈ 1.95 µM)	1 µg/mL (≈ 1.95 µM)	0.25 µg/mL (≈ 0.487 µM)	0.5 µg/mL (≈ 0.975 µM)	> 32 µg/mL	> 32 µg/mL	0.25 µg/mL (≈ 0.487 µM)	> 32 µg/mL	> 32 µg/mL	> 32 µg/mL	0.12 µg/mL (≈ 0.234 µM)	> 32 µg/mL	2 µg/mL (≈ 3.9 µM)	> 32 µg/mL	> 32 µg/mL	
CSC1O[C@H]([C@H](NC(=O)[C@H]2NC[C@@H]3CC(c4ccc(F)cc4)=CCO[C@H]32)[C@H](C)Cl)C(O)[C@@H](O)[C@H]1O (stereo partly shown) [FSA-507057]	> 64 µg/mL	> 64 µg/mL	> 64 µg/mL	> 64 µg/mL	16 µg/mL (≈ 30.1 µM)	2 µg/mL (≈ 3.77 µM)	1 µg/mL (≈ 1.88 µM)	≤ 0.06 µg/mL	0.5 µg/mL (≈ 0.942 µM)	64 µg/mL (≈ 121 µM)	64 µg/mL (≈ 121 µM)	0.12 µg/mL (≈ 0.226 µM)	> 64 µg/mL	64 µg/mL (≈ 121 µM)	> 64 µg/mL	≤ 0.06 µg/mL	64 µg/mL (≈ 121 µM)	1 µg/mL (≈ 1.88 µM)	> 64 µg/mL	> 64 µg/mL	
CSC1O[C@H]([C@H](NC(=O)[C@H]2NC[C@@H]3CC(c4ccc(C(F)(F)F)cc4)=CCO[C@H]32)[C@H](C)Cl)C(O)[C@@H](O)[C@H]1O (stereo partly shown) [FSA-507060]		> 64 µg/mL			32 µg/mL (≈ 55.1 µM)	2 µg/mL (≈ 3.44 µM)	1 µg/mL (≈ 1.72 µM)	0.5 µg/mL (≈ 0.861 µM)	0.5 µg/mL (≈ 0.861 µM)		16 µg/mL (≈ 27.5 µM)	0.25 µg/mL (≈ 0.43 µM)				0.25 µg/mL (≈ 0.43 µM)	16 µg/mL (≈ 27.5 µM)	8 µg/mL (≈ 13.8 µM)	> 64 µg/mL	> 64 µg/mL	MIC [1, 27]: 32 µg/mL (≈ 55.1 µM); MIC [3, 25]: 32 µg/mL (≈ 55.1 µM); MIC [4, 28]: 32 µg/mL (≈ 55.1 µM); MIC [10, 29]: 32 µg/mL (≈ 55.1 µM); MIC [13, 30]: 64 µg/mL (≈ 110 µM); MIC [14, 31]: 32 µg/mL (≈ 55.1 µM); MIC [15, 32]: 64 µg/mL (≈ 110 µM)
CSC1O[C@H]([C@H](NC(=O)[C@H]2NC[C@@H]3C[C@@H](c4ccc(F)cc4)CCO[C@H]32)[C@H](C)Cl)C(O)[C@@H](O)[C@H]1O (stereo partly shown) [FSA-507061]		> 64 µg/mL			2 µg/mL (≈ 3.75 µM)	0.12 µg/mL (≈ 0.225 µM)	0.25 µg/mL (≈ 0.469 µM)	≤ 0.06 µg/mL	≤ 0.06 µg/mL			≤ 0.06 µg/mL				≤ 0.06 µg/mL	2 µg/mL (≈ 3.75 µM)	≤ 0.06 µg/mL			MIC [1, 27]: 64 µg/mL (≈ 120 µM); MIC [21]: 0.125 µg/mL (≈ 0.234 µM); MIC [3, 25]: 4 µg/mL (≈ 7.5 µM); MIC [4, 28]: 32 µg/mL (≈ 60 µM); MIC [22]: 4 µg/mL (≈ 7.5 µM); MIC [10, 29]: 4 µg/mL (≈ 7.5 µM); MIC [11, 26]: 4 µg/mL (≈ 7.5 µM); MIC [13, 30]: 64 µg/mL (≈ 120 µM); MIC [14, 31]: 64 µg/mL (≈ 120 µM); MIC [15, 32]: > 64 µg/mL; MIC [23]: 8 µg/mL (≈ 15 µM); MIC ([19]; P. aeruginosa ATCC 27853, read-out: MIC): > 64 µg/mL; MIC ([20]; P. aeruginosa MMX Mex parent strain, read-out: MIC): > 64 µg/mL; MIC [24]: 16 µg/mL (≈ 30 µM)
